In ChEMBL document CHEMBL1152560, “Substituted 2-arylbenzothiazoles as kinase inhibitors: hit-to-lead optimization” (Bioorg Med Chem, 2009):

Experiments:
[1] = target: Casein kinase I isoform delta (Homo sapiens) (UniProt P48730); test: Residual activity of CK1delta at 0.1 uM by microplate scintillation counting
[2] = target: Tyrosine-protein kinase Lck (Homo sapiens) (UniProt P06239); test: Residual activity of LCK at 0.1 uM by microplate scintillation counting
[3] = target: SRSF protein kinase 3 (Homo sapiens) (UniProt Q9UPE1); test: Residual activity of STK23 at 0.1 uM by microplate scintillation counting
[4] = target: Ribosomal protein S6 kinase alpha-2 (Homo sapiens) (UniProt Q15349); test: Residual activity of RPS6KA2 at 10 uM by microplate scintillation counting
Chain of Ribosomal protein S6 kinase alpha-2 (Homo sapiens) (Q15349 whole entry): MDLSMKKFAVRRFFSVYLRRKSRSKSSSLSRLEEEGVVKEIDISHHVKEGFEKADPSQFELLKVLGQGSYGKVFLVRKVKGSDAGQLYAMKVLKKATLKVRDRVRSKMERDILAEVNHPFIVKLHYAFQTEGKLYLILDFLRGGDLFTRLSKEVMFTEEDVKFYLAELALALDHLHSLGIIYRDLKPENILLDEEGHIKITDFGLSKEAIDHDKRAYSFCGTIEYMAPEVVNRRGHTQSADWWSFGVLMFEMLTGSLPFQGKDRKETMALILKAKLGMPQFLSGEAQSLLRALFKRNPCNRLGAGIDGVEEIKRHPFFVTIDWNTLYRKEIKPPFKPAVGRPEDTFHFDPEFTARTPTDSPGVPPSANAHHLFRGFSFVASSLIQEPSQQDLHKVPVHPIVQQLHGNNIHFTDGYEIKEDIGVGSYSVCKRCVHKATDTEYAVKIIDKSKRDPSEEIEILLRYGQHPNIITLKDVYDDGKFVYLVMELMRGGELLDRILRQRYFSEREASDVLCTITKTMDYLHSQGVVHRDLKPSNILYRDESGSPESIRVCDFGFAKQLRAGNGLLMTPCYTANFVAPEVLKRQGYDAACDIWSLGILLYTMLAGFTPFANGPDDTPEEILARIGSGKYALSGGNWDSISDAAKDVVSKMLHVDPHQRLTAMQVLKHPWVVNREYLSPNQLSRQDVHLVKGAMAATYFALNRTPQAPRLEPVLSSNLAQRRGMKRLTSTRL

[5] = target: Calcium/calmodulin-dependent protein kinase kinase 2 (Homo sapiens) (UniProt Q96RR4); test: Residual activity of CAMKK2 at 1 uM by microplate scintillation counting
Chain of Calcium/calmodulin-dependent protein kinase kinase 2 (Homo sapiens) (Q96RR4 2-588 limits assumed): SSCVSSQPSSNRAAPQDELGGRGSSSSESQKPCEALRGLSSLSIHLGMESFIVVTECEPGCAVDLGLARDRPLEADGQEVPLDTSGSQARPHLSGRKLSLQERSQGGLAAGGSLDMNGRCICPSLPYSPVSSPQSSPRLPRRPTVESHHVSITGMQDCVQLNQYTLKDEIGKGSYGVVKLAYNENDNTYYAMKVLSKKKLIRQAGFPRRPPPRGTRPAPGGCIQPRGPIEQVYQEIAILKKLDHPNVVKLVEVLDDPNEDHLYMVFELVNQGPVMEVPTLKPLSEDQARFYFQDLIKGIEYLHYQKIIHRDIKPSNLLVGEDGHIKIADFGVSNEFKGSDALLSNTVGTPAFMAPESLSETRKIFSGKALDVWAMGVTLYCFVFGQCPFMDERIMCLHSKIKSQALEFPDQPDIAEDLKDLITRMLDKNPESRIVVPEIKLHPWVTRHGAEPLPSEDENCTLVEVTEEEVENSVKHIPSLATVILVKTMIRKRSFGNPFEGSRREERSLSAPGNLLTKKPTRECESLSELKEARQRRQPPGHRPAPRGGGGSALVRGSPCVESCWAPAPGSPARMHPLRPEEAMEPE

[6] = target: Casein kinase II subunit alpha (Homo sapiens) (UniProt P68400); test: Residual activity of CK2alpha1 at 10 uM by microplate scintillation counting
Chain of Casein kinase II subunit alpha (Homo sapiens) (P68400 whole entry, looked up): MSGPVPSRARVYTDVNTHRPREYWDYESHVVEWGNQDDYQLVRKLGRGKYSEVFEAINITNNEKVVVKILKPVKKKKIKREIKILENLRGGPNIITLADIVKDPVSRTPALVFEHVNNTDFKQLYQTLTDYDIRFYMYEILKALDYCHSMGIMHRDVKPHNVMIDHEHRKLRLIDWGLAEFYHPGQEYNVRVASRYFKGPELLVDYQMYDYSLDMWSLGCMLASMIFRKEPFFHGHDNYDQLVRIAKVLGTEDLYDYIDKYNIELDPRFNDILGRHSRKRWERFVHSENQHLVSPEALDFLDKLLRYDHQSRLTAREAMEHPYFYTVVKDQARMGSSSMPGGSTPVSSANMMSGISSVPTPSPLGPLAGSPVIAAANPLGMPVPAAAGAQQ

[7] = target: T1, Activin receptor type-1B (Homo sapiens) (UniProt P36896); test: Residual activity of ACVR1B at 1 uM by microplate scintillation counting
T1 sequence (whole entry): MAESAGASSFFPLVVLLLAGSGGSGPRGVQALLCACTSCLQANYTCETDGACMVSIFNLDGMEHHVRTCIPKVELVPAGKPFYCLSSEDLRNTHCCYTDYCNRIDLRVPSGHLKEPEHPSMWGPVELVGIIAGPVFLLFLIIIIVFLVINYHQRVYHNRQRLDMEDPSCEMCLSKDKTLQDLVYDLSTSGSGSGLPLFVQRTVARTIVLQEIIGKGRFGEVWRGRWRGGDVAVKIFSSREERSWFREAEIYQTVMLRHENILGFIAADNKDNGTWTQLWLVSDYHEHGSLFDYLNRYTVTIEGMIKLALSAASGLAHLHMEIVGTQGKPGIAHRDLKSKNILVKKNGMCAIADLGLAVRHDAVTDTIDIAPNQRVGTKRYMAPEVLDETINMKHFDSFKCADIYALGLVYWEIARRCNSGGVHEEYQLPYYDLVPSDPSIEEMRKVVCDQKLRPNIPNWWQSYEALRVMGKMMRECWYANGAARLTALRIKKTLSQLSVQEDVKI

[8] = target: Cyclin-dependent kinase 16 (Homo sapiens) (UniProt Q00536); test: Residual activity of PCTAIRE1 at 1 uM by microplate scintillation counting
Chain of Cyclin-dependent kinase 16 (Homo sapiens) (Q00536 whole entry): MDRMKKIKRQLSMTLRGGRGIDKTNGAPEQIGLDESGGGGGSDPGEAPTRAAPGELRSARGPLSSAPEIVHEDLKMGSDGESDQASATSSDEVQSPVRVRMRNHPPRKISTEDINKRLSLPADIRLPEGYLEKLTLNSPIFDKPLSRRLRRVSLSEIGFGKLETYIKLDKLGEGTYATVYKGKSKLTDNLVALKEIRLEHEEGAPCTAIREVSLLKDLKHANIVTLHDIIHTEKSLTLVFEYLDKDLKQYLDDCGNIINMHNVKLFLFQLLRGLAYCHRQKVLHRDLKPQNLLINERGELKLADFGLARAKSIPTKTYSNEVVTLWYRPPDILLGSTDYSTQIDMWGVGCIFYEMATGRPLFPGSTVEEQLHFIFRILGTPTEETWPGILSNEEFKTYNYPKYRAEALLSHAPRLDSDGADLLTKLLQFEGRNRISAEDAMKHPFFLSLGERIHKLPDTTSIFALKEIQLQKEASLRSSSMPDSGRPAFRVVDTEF

[9] = target: Death-associated protein kinase 3 (Homo sapiens) (UniProt O43293); test: Residual activity of DAPK3 at 0.1 uM by microplate scintillation counting
Chain of Death-associated protein kinase 3 (Homo sapiens) (O43293 whole entry, looked up): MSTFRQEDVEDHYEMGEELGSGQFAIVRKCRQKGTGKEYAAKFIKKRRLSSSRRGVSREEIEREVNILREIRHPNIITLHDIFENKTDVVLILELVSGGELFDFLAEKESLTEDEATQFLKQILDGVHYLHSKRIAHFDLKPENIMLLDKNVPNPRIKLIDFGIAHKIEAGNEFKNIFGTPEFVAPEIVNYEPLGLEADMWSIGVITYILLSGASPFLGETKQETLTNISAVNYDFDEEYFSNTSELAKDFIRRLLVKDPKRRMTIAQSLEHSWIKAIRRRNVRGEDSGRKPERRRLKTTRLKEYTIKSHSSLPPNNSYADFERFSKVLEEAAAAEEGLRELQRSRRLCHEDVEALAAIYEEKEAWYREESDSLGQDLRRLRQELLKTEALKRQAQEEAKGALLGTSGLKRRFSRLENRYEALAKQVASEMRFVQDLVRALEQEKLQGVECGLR

[10] = target: T2, Serine/threonine-protein kinase TAO2 (Homo sapiens) (UniProt Q9UL54); test: Residual activity of TAOK2 at 10 uM by microplate scintillation counting
T2 sequence (whole entry): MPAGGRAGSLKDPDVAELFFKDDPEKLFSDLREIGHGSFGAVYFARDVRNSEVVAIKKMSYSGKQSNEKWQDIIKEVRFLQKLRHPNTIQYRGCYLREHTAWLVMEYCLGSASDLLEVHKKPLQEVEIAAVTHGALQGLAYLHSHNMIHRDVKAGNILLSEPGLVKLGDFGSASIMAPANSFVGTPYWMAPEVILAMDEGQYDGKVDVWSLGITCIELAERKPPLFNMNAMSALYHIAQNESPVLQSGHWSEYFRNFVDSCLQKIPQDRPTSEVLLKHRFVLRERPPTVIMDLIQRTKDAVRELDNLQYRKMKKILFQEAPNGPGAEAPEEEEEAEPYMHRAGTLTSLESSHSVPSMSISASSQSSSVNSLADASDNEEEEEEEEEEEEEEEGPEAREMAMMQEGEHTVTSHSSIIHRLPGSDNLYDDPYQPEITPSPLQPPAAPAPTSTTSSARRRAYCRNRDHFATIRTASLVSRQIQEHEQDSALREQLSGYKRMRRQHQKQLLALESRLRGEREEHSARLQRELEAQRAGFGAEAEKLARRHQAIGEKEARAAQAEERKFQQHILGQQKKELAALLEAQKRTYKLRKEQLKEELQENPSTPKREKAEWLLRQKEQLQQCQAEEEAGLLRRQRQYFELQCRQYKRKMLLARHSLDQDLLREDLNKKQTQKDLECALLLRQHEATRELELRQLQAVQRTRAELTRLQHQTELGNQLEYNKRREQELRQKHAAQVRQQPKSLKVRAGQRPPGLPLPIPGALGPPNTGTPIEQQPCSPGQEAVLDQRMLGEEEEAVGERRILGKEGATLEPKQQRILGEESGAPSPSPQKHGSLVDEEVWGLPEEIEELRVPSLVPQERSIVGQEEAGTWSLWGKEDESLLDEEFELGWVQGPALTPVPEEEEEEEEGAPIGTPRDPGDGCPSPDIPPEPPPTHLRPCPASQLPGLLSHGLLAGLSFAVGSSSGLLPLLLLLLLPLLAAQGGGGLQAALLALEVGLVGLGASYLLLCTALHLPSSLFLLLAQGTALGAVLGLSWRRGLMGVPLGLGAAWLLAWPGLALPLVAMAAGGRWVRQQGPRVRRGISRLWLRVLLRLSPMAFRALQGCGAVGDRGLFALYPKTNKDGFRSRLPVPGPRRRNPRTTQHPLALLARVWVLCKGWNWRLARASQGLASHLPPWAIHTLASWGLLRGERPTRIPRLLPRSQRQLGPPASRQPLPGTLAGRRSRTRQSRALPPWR

[11] = target: Protein kinase C delta type (Homo sapiens) (UniProt Q05655); test: Residual activity of PKCdelta at 0.1 uM by microplate scintillation counting
Chain of Protein kinase C delta type (Homo sapiens) (Q05655 whole entry, looked up): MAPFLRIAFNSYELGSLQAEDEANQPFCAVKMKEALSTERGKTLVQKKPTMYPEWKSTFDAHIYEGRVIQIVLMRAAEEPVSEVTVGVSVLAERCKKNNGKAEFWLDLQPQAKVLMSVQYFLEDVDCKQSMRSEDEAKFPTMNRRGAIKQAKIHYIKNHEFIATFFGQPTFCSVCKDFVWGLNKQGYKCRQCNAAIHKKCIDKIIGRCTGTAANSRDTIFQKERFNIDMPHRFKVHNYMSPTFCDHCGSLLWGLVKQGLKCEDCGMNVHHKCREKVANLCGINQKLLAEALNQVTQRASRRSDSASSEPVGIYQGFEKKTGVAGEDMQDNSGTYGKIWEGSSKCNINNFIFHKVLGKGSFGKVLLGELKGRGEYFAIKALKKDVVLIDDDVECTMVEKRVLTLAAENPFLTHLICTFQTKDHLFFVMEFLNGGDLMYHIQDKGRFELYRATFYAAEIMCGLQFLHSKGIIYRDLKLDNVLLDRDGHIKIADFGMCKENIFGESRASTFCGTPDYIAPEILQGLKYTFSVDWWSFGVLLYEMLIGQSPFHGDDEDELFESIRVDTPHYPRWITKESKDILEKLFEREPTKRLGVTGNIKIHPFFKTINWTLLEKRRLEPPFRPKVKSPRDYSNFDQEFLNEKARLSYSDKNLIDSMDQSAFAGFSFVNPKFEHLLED

[12] = target: T3, Mitogen-activated protein kinase 12 (Homo sapiens) (UniProt P53778); test: Residual activity of p38-gamma at 0.1 uM by microplate scintillation counting
T3 sequence (whole entry): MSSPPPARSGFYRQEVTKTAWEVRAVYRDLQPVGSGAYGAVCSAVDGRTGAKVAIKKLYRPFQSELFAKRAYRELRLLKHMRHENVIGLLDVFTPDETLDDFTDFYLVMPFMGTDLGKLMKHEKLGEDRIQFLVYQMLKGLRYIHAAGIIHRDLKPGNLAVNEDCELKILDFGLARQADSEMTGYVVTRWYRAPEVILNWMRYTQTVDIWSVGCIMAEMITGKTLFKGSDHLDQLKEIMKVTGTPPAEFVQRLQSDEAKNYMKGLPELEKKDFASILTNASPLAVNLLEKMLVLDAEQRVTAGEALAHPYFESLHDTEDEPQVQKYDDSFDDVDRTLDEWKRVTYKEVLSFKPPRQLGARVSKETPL

[13] = target: Cyclin-dependent kinase 5/CDK5 activator 1 (Homo sapiens) (UniProt Q00535+Q15078); test: Residual activity of CDK5/p25NCK at 0.1 uM by microplate scintillation counting; assay type: protein-complex assay
Chain of Cyclin-dependent kinase 5/CDK5 activator 1 (Homo sapiens) (Q00535 whole entry): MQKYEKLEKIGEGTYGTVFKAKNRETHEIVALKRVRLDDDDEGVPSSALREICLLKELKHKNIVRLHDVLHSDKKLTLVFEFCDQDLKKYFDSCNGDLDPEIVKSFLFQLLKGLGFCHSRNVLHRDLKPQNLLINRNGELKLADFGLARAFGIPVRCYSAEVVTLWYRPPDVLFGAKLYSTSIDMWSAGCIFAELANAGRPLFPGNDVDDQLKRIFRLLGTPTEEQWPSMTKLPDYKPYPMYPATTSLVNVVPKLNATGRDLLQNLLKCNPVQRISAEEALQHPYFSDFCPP
Chain of Cyclin-dependent kinase 5/CDK5 activator 1 (Homo sapiens) (Q15078 99-307 partner limits assumed): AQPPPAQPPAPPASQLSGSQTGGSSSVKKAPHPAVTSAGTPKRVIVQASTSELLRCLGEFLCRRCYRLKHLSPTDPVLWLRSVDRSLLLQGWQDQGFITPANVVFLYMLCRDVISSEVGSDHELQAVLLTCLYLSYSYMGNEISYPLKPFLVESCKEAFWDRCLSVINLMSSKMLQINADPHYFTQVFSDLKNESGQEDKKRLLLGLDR

Chain of Casein kinase I isoform delta (Homo sapiens) (P48730 whole entry, looked up, canonical isoform): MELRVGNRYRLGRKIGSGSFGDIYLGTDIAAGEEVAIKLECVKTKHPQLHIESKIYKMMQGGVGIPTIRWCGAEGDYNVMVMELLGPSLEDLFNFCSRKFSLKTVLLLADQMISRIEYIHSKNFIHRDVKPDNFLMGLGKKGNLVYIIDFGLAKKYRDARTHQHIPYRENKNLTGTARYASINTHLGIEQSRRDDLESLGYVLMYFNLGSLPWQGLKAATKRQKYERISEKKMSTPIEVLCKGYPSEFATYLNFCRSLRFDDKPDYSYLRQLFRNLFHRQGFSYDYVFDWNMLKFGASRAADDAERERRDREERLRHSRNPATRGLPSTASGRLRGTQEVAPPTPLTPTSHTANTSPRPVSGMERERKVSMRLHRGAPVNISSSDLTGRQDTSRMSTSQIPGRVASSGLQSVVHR
Chain of Tyrosine-protein kinase Lck (Homo sapiens) (P06239 2-509 limits assumed): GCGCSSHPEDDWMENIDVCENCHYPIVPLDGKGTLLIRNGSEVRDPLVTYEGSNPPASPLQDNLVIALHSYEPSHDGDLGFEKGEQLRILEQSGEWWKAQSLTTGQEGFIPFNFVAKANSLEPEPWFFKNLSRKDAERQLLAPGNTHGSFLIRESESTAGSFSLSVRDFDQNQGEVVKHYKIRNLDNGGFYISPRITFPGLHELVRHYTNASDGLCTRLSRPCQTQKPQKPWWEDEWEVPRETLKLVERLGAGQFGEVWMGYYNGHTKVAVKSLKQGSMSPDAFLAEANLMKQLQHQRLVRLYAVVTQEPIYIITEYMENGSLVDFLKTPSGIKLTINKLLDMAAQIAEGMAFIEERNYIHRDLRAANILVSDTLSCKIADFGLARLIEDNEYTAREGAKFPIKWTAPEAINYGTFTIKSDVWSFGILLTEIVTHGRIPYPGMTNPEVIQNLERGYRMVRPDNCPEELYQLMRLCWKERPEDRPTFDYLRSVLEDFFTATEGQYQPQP

COc1cc2c(Oc3ccc(-c4nc5ccccc5s4)cc3F)ncnc2cc1OCCCN1CCN(C)CC1
residual activity [1]: 98% | residual activity [2]: 86% | residual activity [3]: 88% | residual activity [4]: 39% | residual activity [5]: 90% | residual activity [6]: 264% | residual activity [7]: 89% | residual activity [8]: 86% | residual activity [9]: 74% | residual activity [10]: 129% | residual activity [11]: 95% | residual activity [12]: 86% | residual activity [13]: 87%

COc1cc2c(Oc3ccc(-c4nc5ccccc5s4)cc3)ncnc2cc1OCCCN1CCCC1
residual activity [1]: 95% | residual activity [2]: 104% | residual activity [3]: 80% | residual activity [4]: 81% | residual activity [5]: 85% | residual activity [6]: 188% | residual activity [7]: 96% | residual activity [8]: 81% | residual activity [9]: 89% | residual activity [10]: 122% | residual activity [11]: 88% | residual activity [12]: 86% | residual activity [13]: 90%

COc1cc2c(Oc3ccc(-c4nc5ccccc5s4)cc3)ncnc2cc1OCCCN1CCN(C)CC1
residual activity [1]: 94% | residual activity [2]: 92% | residual activity [3]: 88% | residual activity [4]: 44% | residual activity [5]: 91% | residual activity [6]: 229% | residual activity [7]: 85% | residual activity [8]: 88% | residual activity [9]: 75% | residual activity [10]: 141% | residual activity [11]: 93% | residual activity [12]: 93% | residual activity [13]: 78%
